{
  "source": "paper PMC7700809",
  "about": "(Molecular Biomedicine, 2020)",
  "key": {"[1]": {"assay": "Lung distribution in mice after oral administration"}, "in vivo": {"assay": "in vivo", "conditions": "Sprague-Dawley, rat, lung, po"}, "[2]": {"assay": "In vivo plasma pharmacokinetics in mice", "conditions": "for MRT last: read-out: MRT0-t; for MRT inf: read-out: MRT0-∞", "procedure": "After dosage, blood samples were collected into heparinized tubes at 2, 5, 15, 30, 60, 120, 240, 360, 540, and 720 min for the i.v. group, and at 5, 15, 30, 60, 90, 120, 240, 360, 540, 720 and 1440 min for the i.g. group. Plasma (100 μL) was isolated from the blood sample by centrifuging at 4 °C and 6000 rpm for 3 min and then stored at − 80 °C until analysis. An aliquot of 100 μL of each plasma sample was mixed with 20 μL of internal standard working solution (200 ng/mL of caffeine). Methanol (400 μL) was then added for precipitation. After vortexing for 5 min and centrifuging at 14000 rpm for 10 min, 5 μL of the supernatant was injected for LC-MS/MS analysis.\nThe PK parameters were analyzed through the noncompartment model using WinNonlin 6.1 software (Pharsight Corporation, Mountain View, USA), including half-life (T1/2), the peak of the plasma concentration (Cmax), the time to peak of the plasma concentration (Tmax), the area under the plasma concentration-time curve during the period of observation (AUC0-t), the area under the plasma concentration-time curve from zero to infinity (AUC0-∞), clearance (CL), apparent volume of distribution (Vd), and the mean residence time."}, "SARS-CoV-2": {"system": "SARS-CoV-2", "assay": "microbe, parasite or virus in culture", "assay_type": "cell-based", "conditions": "Severe acute respiratory syndrome coronavirus 2, Vero; read-out: EC50 antiviral replication effect"}, "IL-6": {"system": "IL-6", "assay": "LPS induced IL-6 protein level in M1 polarized THP-1 macrophages (ELISA)", "assay_type": "cell-based, Human", "conditions": "0.01 μM, 36 h", "procedure": "Results are expressed as means ±S.D. (n = 3).\nHuman monocytic THP-1 cells were maintained in RPMI 1640 medium (Corning, USA) supplemented with 2% L-glutamine,10% fetal bovine serum (FBS), 1% penicillin/ streptomycin and […] ß-mercaptoethanol. THP-1 monocytes are differentiated into macrophages by 24 h incubation with 150 nM phorbol 12-myristate 13-acetate (PMA, Sigma, P8139) followed by 24 h incubation in RPMI medium. Macrophages were polarized in M1 macrophages by incubation with 20 ng/ml of IFN-γ (R&D system, #285-IF) and 100 ng/ml of LPS (Sigma, #8630). […] Cytokine secretion in the culture medium was assayed using an ELISA kit according to the procedure recommended by the supplier (IL-6 (MultiSciences, 70-EK106/2–96), TNFα (MultiSciences,70-EK182HS-96))."}},
  "note": "Read-outs that look alike come from different tables or passages of the source.",
  "data": [
    {"smiles": "CC[C@H]1CN2CCc3cc(OC)c(OC)cc3[C@@H]2C[C@@H]1C[C@H]1NCCc2cc(OC)c(OC)cc21", "note": "[Emetine]", "values": [
      {"measurement": "Mice lung con.", "setting": "[1]; 1 mg/kg (P.O.) single dose, 1 h", "value": "0.23 ± 0.04", "unit": "ng/mL"},
      {"measurement": "Mice lung con.", "setting": "[1]; 1 mg/kg (P.O.) single dose, 2 h", "value": "0.50 ± 0.35", "unit": "ng/mL"},
      {"measurement": "Mice lung con.", "setting": "[1]; 1 mg/kg (P.O.) single dose, 4 h", "value": "0.81 ± 0.16", "unit": "ng/mL"},
      {"measurement": "Mice lung con.", "setting": "[1]; 1 mg/kg (P.O.) single dose, 6 h", "value": "1.06 ± 0.09", "unit": "ng/mL"},
      {"measurement": "Mice lung con.", "setting": "[1]; 1 mg/kg (P.O.) single dose, 9 h", "value": "1.75 ± 0.28", "unit": "ng/mL"},
      {"measurement": "Mice lung con.", "setting": "[1]; 1 mg/kg (P.O.) single dose, 24 h", "value": "1.13 ± 0.18", "unit": "ng/mL"},
      {"measurement": "Mice lung con.", "setting": "[1]; 1 mg/kg (P.O.) single dose, 48 h", "value": "0.61 ± 0.09", "unit": "ng/mL"},
      {"measurement": "Mice lung con.", "setting": "[1]; 1 mg/kg (P.O.) single dose, 72 h", "value": "0.23 ± 0.06", "unit": "ng/mL"},
      {"measurement": "Mice lung con.", "setting": "[1]; 1 mg/kg (Q.D.× 3 days, P.O.), 1 h", "value": "6.17 ± 1.54", "unit": "ng/mL"},
      {"measurement": "Mice lung con.", "setting": "[1]; 1 mg/kg (Q.D.× 3 days, P.O.), 2 h", "value": "6.44 ± 0.96", "unit": "ng/mL"},
      {"measurement": "Mice lung con.", "setting": "[1]; 1 mg/kg (Q.D.× 3 days, P.O.), 4 h", "value": "6.73 ± 0.40", "unit": "ng/mL"},
      {"measurement": "Mice lung con.", "setting": "[1]; 1 mg/kg (Q.D.× 3 days, P.O.), 6 h", "value": "7.14 ± 2.10", "unit": "ng/mL"},
      {"measurement": "Mice lung con.", "setting": "[1]; 1 mg/kg (Q.D.× 3 days, P.O.), 9 h", "value": "7.46 ± 0.89", "unit": "ng/mL"},
      {"measurement": "Mice lung con.", "setting": "[1]; 1 mg/kg (Q.D.× 3 days, P.O.), 12 h", "value": "7.26 ± 0.93", "unit": "ng/mL"},
      {"measurement": "Mice lung con.", "setting": "[1]; 1 mg/kg (Q.D.× 3 days, P.O.), 24 h", "value": "4.61 ± 0.84", "unit": "ng/mL"},
      {"measurement": "Mice lung con.", "setting": "[1]; 1 mg/kg (Q.D.× 3 days, P.O.), 72 h", "value": "2.17 ± 0.42", "unit": "ng/mL"},
      {"measurement": "retention time in lung tissue", "setting": "[1]; in vivo animal PK study, species not named at the place", "value": "over 12 h"},
      {"measurement": "time of maximum lung concentration", "setting": "[1]; mice, 1 mg/kg single oral dose", "value": 12, "unit": "h"},
      {"measurement": "time of maximum lung concentration (Cmax)", "setting": "[1]; mice, 1 mg/kg/day oral 3 days", "value": 9, "unit": "h"},
      {"measurement": "Tmax", "setting": "in vivo; 1 mg/kg", "value": 12, "unit": "h"},
      {"measurement": "concentration at 12 h", "setting": "in vivo; 1 mg/kg", "value": 1.61, "unit": "µM"},
      {"measurement": "concentration at 72 h", "setting": "in vivo; 1 mg/kg", "value": 0.36, "unit": "µM"},
      {"measurement": "concentration at 1 h", "setting": "in vivo; 1 mg/kg/day", "value": "5 to 6", "unit": "µM"},
      {"measurement": "concentration at 72 h", "setting": "in vivo; 1 mg/kg/day", "value": 4.89, "unit": "µM"},
      {"measurement": "AUMC0-t", "setting": "[2]; I.V. 1 mg/kg", "value": "616 ± 181", "unit": "hr*hr.*ng/mL"},
      {"measurement": "AUMC0-∞", "setting": "[2]; I.V. 1 mg/kg", "value": "3472 ± 1149", "unit": "hr*hr.*ng/mL"},
      {"measurement": "AUMC0-t", "setting": "[2]; P.O. 10 mg/kg", "value": "8355 ± 2710", "unit": "hr*hr.*ng/mL"},
      {"measurement": "AUMC0-∞", "setting": "[2]; P.O. 10 mg/kg", "value": "36,666 ± 31,176 hr*hr.*ng/mL"},
      {"measurement": "Cl", "setting": "[2]; P.O. 10 mg/kg", "value": "143.5 ± 64.88", "unit": "mL/min/kg"},
      {"measurement": "Vz", "setting": "[2]; P.O. 10 mg/kg", "value": "174,470 ± 45,790 mL/kg"},
      {"measurement": "AUC(0-inf)", "setting": "[2]; male, mouse, iv, I.V. 1 mg/kg", "value": "258 ± 71", "unit": "ng·h/mL"},
      {"measurement": "AUC(0-t)", "setting": "[2]; male, mouse, iv, I.V. 1 mg/kg", "value": "120 ± 26", "unit": "ng·h/mL"},
      {"measurement": "C0", "setting": "[2]; male, mouse, iv, I.V. 1 mg/kg", "value": "172 ± 86", "unit": "ng/mL"},
      {"measurement": "Cmax", "setting": "[2]; male, mouse, iv, I.V. 1 mg/kg", "value": "111 ± 13.5", "unit": "ng/mL"},
      {"measurement": "Tmax", "setting": "[2]; male, mouse, iv, I.V. 1 mg/kg", "value": 0.03, "unit": "h"},
      {"measurement": "clearance", "setting": "[2]; male, mouse, iv, I.V. 1 mg/kg", "value": 68.6, "unit": "mL/min/kg"},
      {"measurement": "half-life", "setting": "[2]; male, mouse, iv, I.V. 1 mg/kg", "value": "6.24 ± 1.17", "unit": "h"},
      {"measurement": "MRT last", "setting": "[2]; male, mouse, iv, I.V. 1 mg/kg", "value": "5.06 ± 0.57", "unit": "h"},
      {"measurement": "MRT inf", "setting": "[2]; male, mouse, iv, I.V. 1 mg/kg", "value": "13.4 ± 1.37", "unit": "h"},
      {"measurement": "Vd", "setting": "[2]; male, mouse, iv, I.V. 1 mg/kg, read-out: Vz", "value": 38.4, "unit": "L/kg"},
      {"measurement": "AUC(0-inf)", "setting": "[2]; male, mouse, po, P.O. 10 mg/kg", "value": "1340 ± 625", "unit": "ng·h/mL"},
      {"measurement": "AUC(0-t)", "setting": "[2]; male, mouse, po, P.O. 10 mg/kg", "value": "811 ± 208", "unit": "ng·h/mL"},
      {"measurement": "Cmax", "setting": "[2]; male, mouse, po, P.O. 10 mg/kg", "value": "61.6 ± 15.1", "unit": "ng/mL"},
      {"measurement": "Tmax", "setting": "[2]; male, mouse, po, P.O. 10 mg/kg", "value": "1.67 ± 0.58", "unit": "h"},
      {"measurement": "half-life", "setting": "[2]; male, mouse, po, P.O. 10 mg/kg", "value": "15.9 ± 8.22", "unit": "h"},
      {"measurement": "bioavailability", "setting": "[2]; male, mouse, po, P.O. 10 mg/kg vs I.V. 1 mg/kg, read-out: F (oral bioavailability)", "value": "52.1 ± 24.2", "unit": "%"},
      {"measurement": "MRT last", "setting": "[2]; male, mouse, po, P.O. 10 mg/kg", "value": "10.2 ± 1.31", "unit": "h"},
      {"measurement": "MRT inf", "setting": "[2]; male, mouse, po, P.O. 10 mg/kg", "value": "24.3 ± 10", "unit": "h"},
      {"measurement": "EC50", "setting": "SARS-CoV-2", "value": 7, "unit": "nM"},
      {"measurement": "LPS induced IL-6 expression level", "setting": "IL-6", "value": "significantly reduce"}
    ]}
  ]
}
